Target: MC4-R (Homo sapiens, UniProt P32245)
Assay: cAMP Scintillation Proximity Assay (SPA) in cells expressing MC4-R
Assay type: cell-based
Details: intercellular cAMP concentration by SPA kit, read-out: in vitro potency (as measured by EC50 value)
Procedure: EC50 values of test compounds were determined by treating cells expressing MC4-R with test compound and lysing the cells and measuring intercellular cAMP concentration with an Amersham-Pharmacia RPA-559 cAMP Scintillation Proximity Assay (SPA) kit. The following compounds were synthesized and tested according to this assay. The following compounds are merely illustrative and should not be construed as limiting of the instant invention.

Sequence of MC4-R (P32245 whole entry, species assumed): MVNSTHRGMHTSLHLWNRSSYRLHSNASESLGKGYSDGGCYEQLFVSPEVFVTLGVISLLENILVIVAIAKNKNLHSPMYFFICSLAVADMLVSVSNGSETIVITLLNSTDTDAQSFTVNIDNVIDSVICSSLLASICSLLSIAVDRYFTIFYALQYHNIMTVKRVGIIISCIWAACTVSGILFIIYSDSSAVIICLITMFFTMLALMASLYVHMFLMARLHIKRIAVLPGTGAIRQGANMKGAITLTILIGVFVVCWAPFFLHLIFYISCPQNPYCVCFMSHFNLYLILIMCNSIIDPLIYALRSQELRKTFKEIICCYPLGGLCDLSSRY

Structure (SMILES)	EC50
C[C@@H]1[C@@H](N=C(Nc2ccc3c(c2)CN(CCc2ccc(Cl)cc2Cl)C3=O)N2CCN[C@@H](C)C2)C[C@H]2C[C@@H]1C2(C)C [Example 1, (3S)-N-{2-[2-(2,4-dichlorophenyl)ethyl]-1-oxo-2,3-dihydro-1H-isoindol-5-yl}-3-methyl-N′-[(1S,2S,3S,5R)-2,6,6-trimethylbicyclo[3.1.1]hept-3-yl]piperazine-1-carboximidamide]	< 3 µM
C[C@@H]1[C@@H](N=C(Nc2ccc3c(c2)C(=O)N(CCc2ccc(Cl)cc2Cl)C3)N2CCN[C@@H](C)C2)C[C@H]2C[C@@H]1C2(C)C [Example 3, (3S )-N-{2-[2-(2,4-dichlorophenyl)ethyl]-3-oxo-2,3-dihydro-1H-isoindol-5-yl}-3-methyl-N′-[(1S,2S,3S,5R)-2,6,6-trimethylbicyclo[3.1.1]hept-3-yl]piperazine-1-carboximidamide]	< 3 µM
C[C@@H]1[C@@H](N=C(Nc2ccc3c(c2)C(=O)N(Cc2ccc(Cl)cc2Cl)C3=O)N2CCN[C@@H](C)C2)C[C@H]2C[C@@H]1C2(C)C [Example 4, (3S)-N-[2-(2,4-dichlorobenzyl)-1,3-dioxo-2,3-dihydro-1H-isoindol-5-yl]-3-methyl-N′-[(1S,2S,3S,5R)-2,6,6-trimethylbicyclo[3.1.1]hept-3-yl]piperazine-1-carboximidamide]	< 3 µM
C[C@@H]1[C@@H](N=C(Nc2ccc3c(c2)C(=O)N([C@H](CO)Cc2ccccc2)C3=O)N2CCN[C@@H](C)C2)C[C@H]2C[C@@H]1C2(C)C [Example 5, (3S)-N-{2-[(1S)-1-benzyl-2-hydroxyethyl]-1,3-dioxo-2,3-dihydro-1H-isoindol-5-yl}-3-methyl-N′-[(1S,2S,3S,5R)-2,6,6-trimethylbicyclo[3.1.1]hept-3-yl]piperazine-1-carboximidamide]	< 3 µM
C[C@@H]1[C@@H](N=C(Nc2ccc3c(c2)C(=O)N([C@@H](CO)Cc2ccccc2)C3=O)N2CCN[C@@H](C)C2)C[C@H]2C[C@@H]1C2(C)C [Example 6, (3S)-N-{2-[(1R)-1-benzyl-2-hydroxyethyl]-1,3-dioxo-2,3-dihydro-1H-isoindol-5-yl}-3-methyl-N′-[(1S,2S,3S,5R)-2,6,6-trimethylbicyclo[3.1.1]hept-3-yl]piperazine-1-carboximidamide]	< 3 µM
C[C@@H]1[C@@H](N=C(Nc2ccc3c(c2)C(=O)N([C@H](CO)Cc2ccc(Cl)cc2Cl)C3=O)N2CCN[C@@H](C)C2)C[C@H]2C[C@@H]1C2(C)C [Example 8, (3S )-N-{2-[(1S)-1-(2,4-dichlorobenzyl)-2-hydroxyethyl]-1,3-dioxo-2,3-dihydro-1H-isoindol-5yl}-3-methyl-N′-[(1S,2S,3S,5R)-2,6,6-trimethylbicyclo[3.1.1]hept-3-yl]piperazine-1-carboximidamide]	< 3 µM
C[C@@H]1[C@@H](N=C(Nc2ccc3c(c2)CN([C@H](CO)Cc2ccc(Cl)cc2Cl)C3=O)N2CCN[C@@H](C)C2)C[C@H]2C[C@@H]1C2(C)C [Example 9, (3S)-N-{2-[(1S)-1-(2,4-dichlorobenzyl)-2-hydroxyethyl]-1-oxo-2,3-dihydro-1H-isoindol-5yl}-3-methyl-N′-[(1S,2S,3S,5R)-2,6,6-trimethylbicyclo[3.1.1]hept-3-yl]piperazine-1-carboximidamide]	< 3 µM
COc1ccc(CCN2C(=O)c3ccc(NC(=N[C@H]4C[C@H]5C[C@@H]([C@@H]4C)C5(C)C)N4CCN[C@@H](C)C4)cc3C2=O)c(F)c1 [Example 10, (3S)-N-{2-[2-(2-fluoro-4-methoxyphenyl)ethyl]-1,3-dioxo-2,3-dihydro-1H-isoindol-5yl}-3-methyl-N′-[(1S,2S,3S,5R)-2,6,6-trimethylbicyclo[3.1.1]hept-3-yl]piperazine-1-carboximidamide]	< 3 µM
C[C@@H]1[C@@H](N=C(Nc2ccc3c(c2)C(=O)N(CCc2ccc(F)cc2F)C3=O)N2CCN[C@@H](C)C2)C[C@H]2C[C@@H]1C2(C)C [Example 11, (3S)-N-{2-[2-(2,4-difluorophenyl)ethyl]-1,3-dioxo-2,3-dihydro-1H-isoindol-5yl}-3-methyl-N′-[(1S,2S,3S,5R)-2,6,6-trimethylbicyclo[3.1.1]hept-3-yl]piperazine-1-carboximidamide]	< 3 µM
COc1ccc(CCN2C(=O)c3ccc(NC(=N[C@H]4C[C@H]5C[C@@H]([C@@H]4C)C5(C)C)N4CCN[C@@H](C)C4)cc3C2=O)c(OC)c1 [Example 12, (3S)-N-{2-[2-(2,4-dimethoxyphenyl)ethyl]-1,3-dioxo-2,3-dihydro-1H-isoindol-5-yl}-3-methyl-N′-[(1S,2S,3S,5R)-2,6,6-trimethylbicyclo[3.1.1]hept-3-yl]piperazine-1-carboximidamide]	< 3 µM
Cc1ccc(CCN2C(=O)c3ccc(NC(=N[C@H]4C[C@H]5C[C@@H]([C@@H]4C)C5(C)C)N4CCN[C@@H](C)C4)cc3C2=O)c(C)c1 [Example 13, (3S)-N-{2-[2-(2,4-dimethylphenyl)ethyl]-1,3-dioxo-2,3-dihydro-1H-isoindol-5-yl}-3-methyl-N′-[(1S,2S,3S,5R)-2,6,6-trimethylbicyclo[3.1.1]hept-3-yl]piperazine-1-carboximidamide]	< 3 µM
C[C@@H]1[C@@H](N=C(Nc2ccc3c(c2)C(=O)N([C@@H](CO)[C@@H](O)c2ccccc2)C3=O)N2CCN[C@@H](C)C2)C[C@H]2C[C@@H]1C2(C)C [Example 14, (3S)-N-{2-[(1S ,2S)-2-hydroxy-1-(hydroxymethyl)-2-phenylethyl]-1,3-dioxo-2,3-dihydro-1H-isoindol-5yl}-3-methyl-N′-[(1S,2S,3S,5R)-2,6,6-trimethylbicyclo[3.1.1]hept-3-yl]piperazine-1-carboximidamide]	< 3 µM
C[C@@H]1[C@@H](N=C(Nc2ccc3c(c2)C(=O)N([C@H](CO)[C@H](O)c2ccccc2)C3=O)N2CCN[C@@H](C)C2)C[C@H]2C[C@@H]1C2(C)C [Example 15, (3S)-N-{2-[(1R,2R)-2-hydroxy-1-(hydroxymethyl)-2-phenylethyl]-1,3-dioxo-2,3-dihydro-1H-isoindol-5-yl}-3-methyl-N′-[(1S,2S,3S,5R)-2,6,6-trimethylbicyclo[3.1.1]hept-3-yl]piperazine-1-carboximidamide]	< 3 µM
C[C@@H]1[C@@H](N=C(Nc2ccc3c(c2)C(=O)N([C@@H](CO)[C@H](O)c2ccccc2)C3=O)N2CCN[C@@H](C)C2)C[C@H]2C[C@@H]1C2(C)C [Example 16, (3S )-N-{2-[(1S,2R)-2-hydroxy-1-(hydroxymethyl)-2-phenylethyl]-1,3-dioxo-2,3-dixo-2,3-dihydro-1H-isoindol-5-yl}-3-methyl-N′-[(1S,2S,3S,5R)-2,6,6-trimethylbicyclo[3.1.1]hept-3-yl]piperazine-1-carboximidamide]	< 3 µM
COc1ccc(CCN2Cc3cc(NC(=N[C@H]4C[C@H]5C[C@@H]([C@@H]4C)C5(C)C)N4CCN[C@@H](C)C4)ccc3C2=O)c(F)c1 [Example 17, (3S)-N-{2-[2-(2-fluoro-4-methoxyphenyl)ethyl]-1-oxo-2,3-dihydro-1H-isoindol-5-yl}-3-methyl-N′-[(1S,2S,3S,5R)-2,6,6-trimethylbicyclo[3.1.1]hept-3-yl]piperazine-1-carboximidamide]	< 3 µM
C[C@@H]1[C@@H](N=C(Nc2ccc3c(c2)CN(CCc2ccc(F)cc2F)C3=O)N2CCN[C@@H](C)C2)C[C@H]2C[C@@H]1C2(C)C [Example 18, (3S)-N-{2-[2-(2,4-difluorophenyl)ethyl]-1-oxo-2,3-dihydro-1H-isoindol-5-yl}-3-methyl-N′-[(1S,2S,3S,5R)-2,6,6-trimethylbicyclo[3.1.1]hept-3-yl]piperazine-1-carboximidamide]	< 3 µM
C[C@@H]1[C@@H](N=C(Nc2ccc3c(c2)C(=O)N(CCc2ccc(F)cc2F)C3)N2CCN[C@@H](C)C2)C[C@H]2C[C@@H]1C2(C)C [Example 19, (3S)-N-{2-[2-(2,4-difluorophenyl)ethyl]-3-oxo-2,3-dihydro-1H-isoindol-5-yl}-3-methyl-N′-[(1S,2S,3S,5R)-2,6,6-trimethylbicyclo[3.1.1]hept-3-yl]piperazine-1-carboximidamide]	< 3 µM
Cc1ccc(CCN2Cc3cc(NC(=N[C@H]4C[C@H]5C[C@@H]([C@@H]4C)C5(C)C)N4CCN[C@@H](C)C4)ccc3C2=O)c(C)c1 [Example 20, (3S)-N-{2-[2-(2,4-dimethylphenyl)ethyl]-1-oxo-2,3-dihydro-1H-isoindol-5-yl}-3-methyl-N′-[(1S,2S,3S,5R)-2,6,6-trimethylbicyclo[3.1.1]hept-3-yl]piperazine-1-carboximidamide]	< 3 µM
Cc1ccc(CCN2Cc3ccc(NC(=N[C@H]4C[C@H]5C[C@@H]([C@@H]4C)C5(C)C)N4CCN[C@@H](C)C4)cc3C2=O)c(C)c1 [Example 21, (3S)-N-{2-[2-(2,4-dimethylphenyl)ethyl]-3-oxo-2,3-dihydro-1H-isoindol-5-yl}-3-methyl-N′-[(1S,2S,3S,5R)-2,6,6-trimethylbicyclo[3.1.1]hept-3-yl]piperazine-1-carboximidamide]	< 3 µM
C[C@@H]1[C@@H](N=C(Nc2ccc3c(c2)CCN(CCc2ccc(Cl)cc2Cl)C3=O)N2CCN[C@@H](C)C2)C[C@H]2C[C@@H]1C2(C)C [Example 22, (3S)-N-{2-[2-(2,4-dichlorophenyl)ethyl]-1-oxo-1,2,3,4-tetrahydroisoquinolin-6-yl}-3-methyl-N′-[(1S,2S,3S,5R)-2,6,6-trimethylbicyclo[3.1.1]hept-3-yl]piperazine-1-carboximidamide]	< 3 µM
C[C@@H]1[C@@H](/N=C(\Nc2ccc3[nH]c(CCc4ccc(Cl)cc4Cl)nc3c2)N2CCN[C@@H](C)C2)C[C@H]2C[C@@H]1C2(C)C [Example 23, (3S)-N-{2-[2-(2,4-dichlorophenyl)ethyl]-1H-benzimidazol-5-yl}-3-methyl-N′-[(1S,2S,3S,5R)-2,6,6-trimethylbicyclo[3.1.1]hept-3-yl]piperazine-1-carboximidamide]	< 3 µM

From patent US6960582B2, “Guanidino compounds” (Chiron Corporation, priority 2001, dated 2005)
